# Test results taken from article PMC7881012, “Human ACE2 peptide-mimics block SARS-CoV-2 pulmonary cells infection” (Communications Biology, 2021).
# Read-outs that look alike come from different tables or passages of the source. Square brackets hold non-standard residues; d marks the D form. Ends that are not written are not given here. Peptide text beside a SMILES is read from it. hTyr = N[C@@H](CCc1ccc(O)cc1)C(=O)O
# Assays:
# [1] = Helical content by circular dichroism; format: physicochemical; details: 60 µM peptide, 50 mM sodium phosphate buffer pH 7.4, 25 °C, DichroWeb CDSSTR deconvolution
# Description: The conformation of synthesized peptides in aqueous solution was investigated by circular dichroism (CD) spectroscopy. […] The deconvolution of the CD spectra using DichroWeb[25] allowed us to estimate the helical population for each peptide, which is reported in Table 1. Overall, an excellent agreement was observed between the Agadir-computed values and the experimental helical population inferred from CD data. […] The introduction of a proline residue in peptide P5 has a strong destabilizing effect on helical conformation (17%) whereas Leu/hTyr substitution only led to a slight decrease of the helical content (P7 versus P6 and P10 versus P8).
# Fig. 2 Far-UV CD spectra of synthesized peptides. […] CD measurements are reported as molar ellipticity per residue.
# CD spectra were recorded on a Jasco J-815 CD spectropolarimeter equipped with a Peltier temperature controller. Data were obtained at 25 °C over a wavelength range between 185 nm and 270 nm, using a wavelength interval of 0.2 nm and a scan rate of 20 nm min^−1. Peptide samples were prepared at a concentration of 60 µM in 50 mM sodium phosphate buffer, pH 7.4, in a quartz cell of 1 mm path length. CD experiments were processed and plotted with R program. CD spectra were analyzed using DICHROWEB web server and CDSSTR deconvolution algorithm.
# [2] = HPLC retention time (LC-MS method B); format: physicochemical; details: method B: X-Select CSH C18 XP, 0.1% formic acid water/acetonitrile, 5-100% B in 3.2 min, 1.8 mL min^−1, 40 °C; used as indicator of hydrophobicity
# Solubility (qualitative) = format: physicochemical; details: qualitative statement
# [3] = tested on: SARS-CoV-2 clinical isolate SARS-CoV-2/PSL2020 in Vero-E6 cells
# [4] = tested on: SARS-CoV-2 clinical isolate SARS-CoV-2/PSL2020 in Calu-3 cells; details: clinical isolate /PSL2020 in Calu-3 cells, 48 h
# [5] = tested on: SARS-CoV-2 clinical isolate SARS-CoV-2/PSL2020 in Calu-3 cells; format: cell-based
# Calu-3 cells [6] = details: 10 μM (150 times the IC50); MTT and annexin-V/PI, 24, 48 or 72 h (Fig. 3f)
# [7] = biological target: SARS-CoV-2 spike RBD (Fc-tagged 2019-nCoV RBD-SD1) (Severe acute respiratory syndrome coronavirus 2, UniProt P0DTC2); assay: biochemical; format: binding; details: for kon: read-out: ka, association constant; for koff: read-out: kdis, dissociation constant
# Calu-3 cells [8] = tested on: Calu-3 cells
# Vero-E6 cells [9] = tested on: Vero-E6 cells
# Vero-E6 cells [10] = details: 10 µM
# [11] = clinical isolate /PSL2020 in Vero-E6 cells, 48 h, 10 µM
# [12] = BLI EXP1, sample conc. ACE2 10 nM, P8 100 nM, P9 and P10 1000 nM
# [13] = BLI EXP2, sample conc. ACE2 100 nM, P8 1000 nM, P9 and P10 1111 nM
compound,measurement,setting,value
CC(C)C[C@H](NC(=O)[C@H](C)NC(=O)[C@H](CC(C)C)NC(=O)[C@H](C)NC(=O)[C@H](CC(C)C)NC(=O)[C@H](CCC(N)=O)NC(=O)[C@H](Cc1ccc(O)cc1)NC(=O)[C@H](CC(C)C)NC(=O)[C@H](CC(C)C)NC(=O)[C@H](CC(=O)O)NC(=O)[C@H](CCC(=O)O)NC(=O)[C@H](CC(C)C)NC(=O)[C@H](CCC(=O)O)NC(=O)[C@H](Cc1c[nH]cn1)NC(=O)[C@H](CC(C)C)NC(=O)[C@H](Cc1ccccc1)NC(=O)[C@H](CCCCN)NC(=O)[C@H](CC(=O)O)NC(=O)[C@H](CC(C)C)NC(=O)[C@H](Cc1ccccc1)NC(=O)[C@@H](NC(=O)[C@H](CCCCN)NC(=O)[C@H](CCc1ccc(O)cc1)NC(=O)[C@H](CCC(N)=O)NC(=O)[C@H](CCC(=O)O)NC(=O)[C@H](CCC(=O)O)NC(=O)[C@H](CC(C)C)NC(=O)[C@H](C)NC(=O)[C@@H](N)CO)[C@@H](C)O)C(N)=O [P7] (H-SALEEQ[hTyr]KTFLDKFLHELEDLLYQLALAL-NH2),Experimental helical content%,[1],63%
same,"RT, HPLC retention time",[2],"2,57 min"
same,solubility,Solubility (qualitative),slight increase in solubility
same,% Inhibition of SARSCoV-2 replication at 10 μM,"[3]; […], mean of at least three independent experiments",54%
same,"% Inhibition, Moyenne",[3]; [11],53.7%
same,"% Inhibition, Q2 (Median)",[3]; [11],43.4%
same,IC50,[4],> 1000 nM
SALEEQLKTFLDKFMHELEDLLYQLAL-NH2 [P8],Experimental helical content%,[1],70%
same,SARSCoV-2 virus titer at 1 μM (PFU mL^−1) on Calu-3,[5],0 PFU mL^−1
same,"RT, HPLC retention time",[2],"2,45 min"
same,solubility,Solubility (qualitative),highly soluble
same,cytotoxicity in uninfected Calu-3 cells,Calu-3 cells [6],no cytotoxicity
same,kon,[7]; [12],5610 M⁻¹ s⁻¹
same,koff,[7]; [12],8.94e-05 s⁻¹
same,kon,[7]; [13],4310 M⁻¹ s⁻¹
same,koff,[7]; [13],0.000137 s⁻¹
same,Cell death (AnnV+PI),"Calu-3 cells [8]; EXP1, peptide 10 µM, 24 h (0 µM: 16%)",23%
same,Cell death (AnnV+PI),"Calu-3 cells [8]; EXP1, peptide 10 µM, 48 h (0 µM: 18%)",20%
same,Cell death (AnnV+PI),"Calu-3 cells [8]; EXP1, peptide 10 µM, 72 h (0 µM: 23%)",18%
same,Cell death (AnnV+PI),"Calu-3 cells [8]; EXP2, peptide 10 µM, 24 h (0 µM: 13%)",16%
same,Cell death (AnnV+PI),"Calu-3 cells [8]; EXP2, peptide 10 µM, 48 h (0 µM: 17%)",19%
same,Cell death (AnnV+PI),"Calu-3 cells [8]; EXP2, peptide 10 µM, 72 h (0 µM: 20%)",22%
same,Cell death (AnnV+PI),"Calu-3 cells [8]; EXP3, peptide 10 µM, 24 h (Vehicle: 15%)",23%
same,Cell death (AnnV+PI),"Calu-3 cells [8]; EXP3, peptide 10 µM, 48 h (Vehicle: 18%)",20%
same,Cell death (AnnV+PI),"Calu-3 cells [8]; EXP3, peptide 10 µM, 72 h (Vehicle: 22%)",18%
same,Cell viability (MTT),"Vero-E6 cells [9]; 72 h, 0.1 µM",98%
same,toxicity in Vero-E6,"Vero-E6 cells [9]; MTT 0.1-10 µM and annexin-V/PI 10 µM, 24, 48 or 72 h (Fig. 3c)",devoid of toxicity
same,Cell death (AnnV+PI),"Vero-E6 cells [10]; 24 h, EXP1, flow cytometry",3.74%
same,Cell death (AnnV+PI),"Vero-E6 cells [10]; 24 h, EXP2, flow cytometry",3.24%
same,Cell death (AnnV+PI),"Vero-E6 cells [10]; 24 h, EXP3, flow cytometry",5%
same,Cell death (AnnV+PI),"Vero-E6 cells [10]; 48 h, EXP1, flow cytometry",5.63%
same,Cell death (AnnV+PI),"Vero-E6 cells [10]; 48 h, EXP2, flow cytometry",4.63%
same,Cell death (AnnV+PI),"Vero-E6 cells [10]; 48 h, EXP3, flow cytometry",4.26%
same,Cell death (AnnV+PI),"Vero-E6 cells [10]; 72 h, EXP1, flow cytometry",4%
same,Cell death (AnnV+PI),"Vero-E6 cells [10]; 72 h, EXP2, flow cytometry",3%
same,Cell death (AnnV+PI),"Vero-E6 cells [10]; 72 h, EXP3, flow cytometry",3.48%
same,IC50,[4],46 nM
